Data published in PubChem BioAssay AID2060356 (Molecular Pharmacology Branch, DTP, NCI, 2025).
pIC50: −log10 of the molar value. Several values for one entry are separate records, joined by “and”; a condition that tells them apart may be missing. Identical values can stand only once.

System: PDC tumor spheroids with HUVEC/MSC, viability
Experiment: Anticancer human tumor 439559-082-T-J2-PDC patient-derived colon adenocarcinoma cell line growth inhibition [TAK]
Details: for viability, T/C: stronger effect = lower value
Description: Combinatorial screen of targeted agents with TAK-243 and ipatasertib in multi-cell type tumor spheroids
A high-throughput screen of multi-cell type tumor spheroids was designed to identify active combinations of targeted small molecules and TAK-243 or ipatasertib. Complex spheroids include a stromal component modeled by human endothelial cells (HUVEC) and fibroblasts modeled by human mesenchymal stem cells (MSCs). The concentration ranges selected for each drug and investigational agent were based upon clinically achievable concentrations if the clinical Cmax of the agent was known.
Compounds. The drugs and investigational agents: TAK-243 (785004), ipatasertib (767898), everolimus (733504), selumetinib (741078), bortezomib (756655), trametinib (758246), ixazomib (758254), vemurafenib (761431), dabrafenib (764134), sapanisertib (764658), alpelisib (765974), and copanlisib (816437), were obtained from the National Cancer Institute (NCI) Developmental Therapeutics Program Chemical Repository. The FDA-approved anticancer drug set is available from the NCI Developmental Therapeutics Program. […] The stock solutions were prepared in dimethyl sulfoxide (DMSO, Sigma-Aldrich, St. Louis, MO, cat. D2650) at 800-fold the tested concentration and stored at -70 degrees C prior to their use. All drugs and investigational agents were tested over a range starting from a high concentration at or near the clinical Cmax and decreasing in half-log increments. If the clinical Cmax for an agent had not been determined, the highest concentration tested was 10 microM.
NCI60 Cell Culture. NCI60 cell lines were obtained from the NCI Developmental Therapeutics Program Tumor Repository. For each lot of cells, the Repository performed Applied Biosystems AmpFLSTR Identifiler testing with PCR amplification to confirm consistency with the published Identifier STR profile for each cell line. Cells were kept in continuous culture for no more than 20 passages. The optimal seeding densities for each of the cell lines at each time point assessed were determined prior to performing the concentration response studies. Briefly, the NCI60 human tumor lines were grown as monolayers in RPMI 1640 medium supplemented with 10% FBS and 2 mmol/L L-glutamine.
An additional 2 lines were from the NCI60 cell line panel including melanomas, MALME-3M and SK-MEL-2. Pooled donor human umbilical vein endothelial cells (HUVEC, Lonza, cat. CC-2519) and human mesenchymal stem cells (hMSC, Lonza, cat. PT-2501) were purchased from Lonza (Walkersville, MD).
PDMR cell lines were grown in complete medium (DC medium): Dulbecco's modified Eagle's medium (DMEM)/F12 supplemented with 5% fetal bovine serum (FBS), 2 mM L-glutamine, 100 U/mL penicillin and 100 µg/ml streptomycin, 0.4 µg/ml hydrocortisone, 10 ng/ml epidermal growth factor (EGF) recombinant human protein, 24 µg/mL adenine, and 0.1 mg/mL primocin. During culture from frozen stock vials, PDMR cells were cultured in the same medium containing 10 µM Y-27632 (see Table 3). The PDCs were cultured in complete DMEM/F12 media without 10 microM Y-27632 dihydrochloride for at least two passages prior to the screen. The pooled donor HUVEC and hMSC were cultured in endothelial cell growth medium 2 (PromoCell, Heidelberg, Germany, cat. C-22011) and mesenchymal stem cell growth medium 2 (PromoCell, cat. C-28009), respectively. For all experiments, HUVEC and hMSC were used at passages </=5.
For the pre-screen, cell seeding densities were determined from a titration spanning the range from 5,000 to 313 cells per well. The mct-spheroids including 60% malignant cells, 25% HUVEC and 15% MSC dispensed as a mixture into U-bottom Ultra-Low Attachment 384-well plates (Corning, NY)
High-throughput Drug Combination Screening.
Prior to their inoculation into 384-well plates, malignant cells, HUVEC, and hMSC were removed from T flasks using TrypLE express (Thermo Fisher Scientific, cat. 12605036) and harvested by centrifugation for 5 min at 233 x g. […]

[1] = curve of first compound, second compound 0.3 µM
[2] = curve of first compound, second compound 0.949 µM
[3] = curve of first compound, second compound 3 µM
[4] = curve of first compound, second compound 9.49 µM
[5] = curve of first compound, second compound 30 µM
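Also: spheroids exposed to drugs for seven days before readout.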

With `COc1c(OCCCN2CCOCC2)ccc2c3n(c(=NC(=O)c4cnc(N)nc4)nc12)CCN3` + CC(C)NCC(C(=O)N1CCN(c2ncnc3c2C(C)CC3O)CC1)c1ccc(Cl)cc1 the pIC50 [1] was less than 6.00, the pIC50 [2] was less than 6.00 and the pIC50 [3] was less than 6.00. The pIC50 [4] was less than 6.00, the pIC50 [5] was less than 6.00 and the viability, T/C (second compound 0.3 µM, first compound 0.00316 µM) was 98.6%. For the same compound, the viability, T/C (second compound 0.3 µM, first compound 0.01 µM) was 89.5%, the viability, T/C (second compound 0.3 µM, first compound 0.0316 µM) was 71.3% and the viability, T/C (second compound 0.3 µM, first compound 0.1 µM) was 73.3%. The viability, T/C (second compound 0.3 µM, first compound 0.316 µM) was 61.8%, the viability, T/C (second compound 0.3 µM, first compound 1 µM) was 66.9% and the viability, T/C (second compound 0.949 µM, first compound 0.00316 µM) was 98.5%. It also gave a viability, T/C (second compound 0.949 µM, first compound 0.01 µM) of 91.5%, a viability, T/C (second compound 0.949 µM, first compound 0.0316 µM) of 76.2% and a viability, T/C (second compound 0.949 µM, first compound 0.1 µM) of 72.4%. For the same compound, the viability, T/C (second compound 0.949 µM, first compound 0.316 µM) was 66.8%, the viability, T/C (second compound 0.949 µM, first compound 1 µM) was 65.8% and the viability, T/C (second compound 3 µM, first compound 0.00316 µM) was 85.1%. The viability, T/C (second compound 3 µM, first compound 0.01 µM) was 88.4%, the viability, T/C (second compound 3 µM, first compound 0.0316 µM) was 75.5% and the viability, T/C (second compound 3 µM, first compound 0.1 µM) was 71.3%. For the same compound, the viability, T/C (second compound 3 µM, first compound 0.316 µM) was 66.8%, the viability, T/C (second compound 3 µM, first compound 1 µM) was 69.7% and the viability, T/C (second compound 9.49 µM, first compound 0.00316 µM) was 90.6%. For the same compound, the viability, T/C (second compound 9.49 µM, first compound 0.01 µM) was 80.8%, the viability, T/C (second compound 9.49 µM, first compound 0.0316 µM) was 80.9% and the viability, T/C (second compound 9.49 µM, first compound 0.1 µM) was 73.7%. The viability, T/C (second compound 9.49 µM, first compound 0.316 µM) was 67.8%, the viability, T/C (second compound 9.49 µM, first compound 1 µM) was 70.9% and the viability, T/C (second compound 30 µM, first compound 0.00316 µM) was 83.9%. The viability, T/C (second compound 30 µM, first compound 0.01 µM) was 79%, the viability, T/C (second compound 30 µM, first compound 0.0316 µM) was 72.6% and the viability, T/C (second compound 30 µM, first compound 0.1 µM) was 68.9%. It also gave a viability, T/C (second compound 30 µM, first compound 0.316 µM) of 64.5% and a viability, T/C (second compound 30 µM, first compound 1 µM) of 72.7%.

For `COC1CC2CCC(C)C(O)(O2)C(=O)C(=O)N2CCCCC2C(=O)OC(C(C)CC2CCC(OCCO)C(OC)C2)CC(=O)C(C)C=C(C)C(O)C(OC)C(=O)C(C)CC(C)C=CC=CC=C1C` (stereo unspecified), the viability, T/C (compound 0.000316 µM) was 110% and 103%, the viability, T/C (compound 0.001 µM) was 97.7% and 98.1% and the viability, T/C (compound 0.00316 µM) was 90.7% and 89.7%. For the same compound, the viability, T/C (compound 0.01 µM) was 82.7% and 90.2%, the viability, T/C (compound 0.0316 µM) was 90.9% and 86% and the viability, T/C (compound 0.1 µM) was 91.7% and 92.3%. The pIC50 (curve of compound) was less than 7.00.

For `Cn1cnc2c(F)c(Nc3ccc(Br)cc3Cl)c(C(=O)NOCCO)cc21` + CC(C)NCC(C(=O)N1CCN(c2ncnc3c2C(C)CC3O)CC1)c1ccc(Cl)cc1, the pIC50 [1] was less than 5.52, the pIC50 [2] was less than 5.52 and the pIC50 [3] was less than 5.52. It also gave a pIC50 [4] of less than 5.52, a pIC50 [5] of less than 5.52 and a viability, T/C (second compound 0.3 µM, first compound 0.00949 µM) of 92.4%. It also gave a viability, T/C (second compound 0.3 µM, first compound 0.03 µM) of 82.1%, a viability, T/C (second compound 0.3 µM, first compound 0.0949 µM) of 80.9% and a viability, T/C (second compound 0.3 µM, first compound 0.3 µM) of 76.3%. It also gave a viability, T/C (second compound 0.3 µM, first compound 0.949 µM) of 68.9%, a viability, T/C (second compound 0.3 µM, first compound 3 µM) of 65.7% and a viability, T/C (second compound 0.949 µM, first compound 0.00949 µM) of 104%. It also gave a viability, T/C (second compound 0.949 µM, first compound 0.03 µM) of 97.4%, a viability, T/C (second compound 0.949 µM, first compound 0.0949 µM) of 81% and a viability, T/C (second compound 0.949 µM, first compound 0.3 µM) of 77.2%. The viability, T/C (second compound 0.949 µM, first compound 0.949 µM) was 67.9%, the viability, T/C (second compound 0.949 µM, first compound 3 µM) was 69.4% and the viability, T/C (second compound 3 µM, first compound 0.00949 µM) was 102%. For the same compound, the viability, T/C (second compound 3 µM, first compound 0.03 µM) was 99.8%, the viability, T/C (second compound 3 µM, first compound 0.0949 µM) was 80.2% and the viability, T/C (second compound 3 µM, first compound 0.3 µM) was 68.2%. For the same compound, the viability, T/C (second compound 3 µM, first compound 0.949 µM) was 72%, the viability, T/C (second compound 3 µM, first compound 3 µM) was 63.3% and the viability, T/C (second compound 9.49 µM, first compound 0.00949 µM) was 99.2%. It also gave a viability, T/C (second compound 9.49 µM, first compound 0.03 µM) of 91.7%, a viability, T/C (second compound 9.49 µM, first compound 0.0949 µM) of 83.9% and a viability, T/C (second compound 9.49 µM, first compound 0.3 µM) of 72%. The viability, T/C (second compound 9.49 µM, first compound 0.949 µM) was 70.5%, the viability, T/C (second compound 9.49 µM, first compound 3 µM) was 64.7% and the viability, T/C (second compound 30 µM, first compound 0.00949 µM) was 93.6%. The viability, T/C (second compound 30 µM, first compound 0.03 µM) was 89.7%, the viability, T/C (second compound 30 µM, first compound 0.0949 µM) was 85.4% and the viability, T/C (second compound 30 µM, first compound 0.3 µM) was 75.2%. For the same compound, the viability, T/C (second compound 30 µM, first compound 0.949 µM) was 69.5% and the viability, T/C (second compound 30 µM, first compound 3 µM) was 66.3%.

`CC(C)n1nc(-c2ccc3oc(N)nc3c2)c2c(N)ncnc21` was tested, and the viability, T/C (compound 0.000316 µM) was 106% and 115%, the viability, T/C (compound 0.001 µM) was 99.2% and 110% and the viability, T/C (compound 0.00316 µM) was 97.8% and 105%. The viability, T/C (compound 0.01 µM) was 83.5% and 85.3%, the viability, T/C (compound 0.0316 µM) was 76% and 76.8% and the viability, T/C (compound 0.1 µM) was 69.8% and 74.7%. For the same compound, the pIC50 (curve of compound) was less than 7.00.

In the case of `COc1c(OCCCN2CCOCC2)ccc2c3n(c(=NC(=O)c4cnc(N)nc4)nc12)CCN3`, the viability, T/C (compound 0.00316 µM) was 103% and 116%, the viability, T/C (compound 0.01 µM) was 91% and 95.7% and the viability, T/C (compound 0.0316 µM) was 82.8% and 82.9%. The viability, T/C (compound 0.1 µM) was 75.8% and 72.9%, the viability, T/C (compound 0.316 µM) was 68.9% and 70.3% and the viability, T/C (compound 1 µM) was 66% and 72.5%. The pIC50 (curve of compound) was less than 6.00.
